Patent US9133186B2, “Hetero ring-fused imidazole derivative having AMPK activating effect” (Shionogi & Co., Ltd., priority 2010, dated 2015)

Molecular target: T1, human AMPK α1β1γ1 enzyme (Homo sapiens, UniProt Q13131+Q9Y478)
T1 construct: purchased Carna Biosciences, Inc
Test: AMPK activator evaluation, Test Example 1 (mobility shift, FL-Peptide 7)
Type: biochemical
Conditions: human AMPK α1β1γ1, control without compound = 100%; for Emax: read-out: Emax (maximum rate of increase in activity within the measurement range)
Procedure: To a buffer solution consisting of a 50 mM HEPES-NaOH buffer solution (pH 7.0), 100 mM NaCl, 10 mM magnesium chloride, 0.1% bovine serum albumin, 0.2 mM sodium orthovanadate(V), 1 mM ethylene glycol-bis(2-aminoethyl ether)-N,N,N′,N′-tetraacetic acid (EGTA), 5 mM disodium (3-glycerophosphate and 2 mM dithiothreitol, a human AMPK α1β1γ1 enzyme (manufactured by Carna Biosciences, Inc.) was added in an amount to give a conversion rate of approximately 10% by reaction for 2 hours, and a compound dissolved in DMSO was added thereto so as to have a 1% DMSO concentration. The obtained liquid was left to stand for 10 minutes.
To the liquid, a substrate solution consisting of a 50 mM HEPES-NaOH buffer solution (pH 7.0), 100 mM NaCl, 10 mM magnesium chloride, 0.1% bovine serum albumin, 0.2 mM sodium orthovanadate(V), 1 mM ethylene glycol-bis(2-aminoethyl ether)-N,N,N′,N′ tetraacetic acid (EGTA), 5 mM disodium β-glycerophosphate, 2 mM dithiothreitol, 0.4 mM ATP and 3 μM FL-Peptide 7 (manufactured by Caliper Life Sciences, Inc.) was added in equal amount (10 μl in total). The obtained liquid was allowed to react at 25° C. for 2 hours, and 10 μl of 20 mM EDTA was then added thereto to stop the reaction.
To detect phosphorylated fluorescent substrates, the reaction liquid was applied to a measuring device, LabChip EZ Reader II manufactured by Caliper Life Science, Inc., for detecting fluorescence by using differences in mobility due to differences in charge. The setting conditions for the device were pressure, −1.5 PSI; upstream voltage, −2250 V; downstream voltage, −400 V; post sample buffer sip time, 40 seconds; final delay, 120 seconds; and peak order, Product First.

T1 sequence (Q13131 10-559 limits assumed): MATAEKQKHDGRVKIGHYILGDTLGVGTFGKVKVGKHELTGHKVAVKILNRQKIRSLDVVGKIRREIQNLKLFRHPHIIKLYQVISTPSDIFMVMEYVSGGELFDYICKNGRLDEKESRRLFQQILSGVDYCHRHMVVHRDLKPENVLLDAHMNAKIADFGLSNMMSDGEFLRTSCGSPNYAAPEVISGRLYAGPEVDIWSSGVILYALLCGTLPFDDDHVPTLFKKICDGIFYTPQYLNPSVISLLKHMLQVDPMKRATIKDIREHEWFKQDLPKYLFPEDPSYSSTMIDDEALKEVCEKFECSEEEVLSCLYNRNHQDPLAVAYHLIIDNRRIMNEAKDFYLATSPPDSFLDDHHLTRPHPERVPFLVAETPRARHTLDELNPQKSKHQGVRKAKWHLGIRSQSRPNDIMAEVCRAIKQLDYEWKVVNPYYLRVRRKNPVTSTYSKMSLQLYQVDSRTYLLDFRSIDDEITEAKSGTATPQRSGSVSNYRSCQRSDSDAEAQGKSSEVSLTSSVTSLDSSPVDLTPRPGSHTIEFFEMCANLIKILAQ
T1 sequence (Q9Y478 whole entry): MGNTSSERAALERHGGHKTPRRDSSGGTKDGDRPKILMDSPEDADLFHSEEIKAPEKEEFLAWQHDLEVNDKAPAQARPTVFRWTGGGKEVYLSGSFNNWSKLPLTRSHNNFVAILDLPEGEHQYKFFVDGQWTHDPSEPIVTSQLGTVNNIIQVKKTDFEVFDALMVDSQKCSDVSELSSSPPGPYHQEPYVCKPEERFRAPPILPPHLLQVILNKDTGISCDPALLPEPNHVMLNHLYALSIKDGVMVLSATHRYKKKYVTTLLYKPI
T1 sequence (P54619 whole entry partner): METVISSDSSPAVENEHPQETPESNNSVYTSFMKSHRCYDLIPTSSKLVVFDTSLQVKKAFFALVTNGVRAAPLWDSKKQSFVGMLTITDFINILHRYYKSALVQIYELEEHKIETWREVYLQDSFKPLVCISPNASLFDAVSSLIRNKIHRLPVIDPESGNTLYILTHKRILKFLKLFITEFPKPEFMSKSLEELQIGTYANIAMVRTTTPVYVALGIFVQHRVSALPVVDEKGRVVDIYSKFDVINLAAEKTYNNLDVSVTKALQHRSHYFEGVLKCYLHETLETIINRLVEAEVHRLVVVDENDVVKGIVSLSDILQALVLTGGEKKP

SMILES	EC150 (compound concentration showing 150% relative to the control) [nM]	Emax [%]
CC(=O)NC(C)(C)c1ncc(Oc2nc3nc(-c4ccc(N5CCOCC5)cc4)c(Cl)cc3[nH]2)cn1 [Compound D-2]	220	255
CC(=O)NC(C)(C)c1ccc(Oc2nc3nc(-c4ccc(N(C)C)cc4)c(Cl)cc3[nH]2)cc1 [Compound D-21]	41	351
CONC(=O)C(C)(C)c1ccc(Oc2nc3nc(-c4ccc(N5CCOCC5)cc4)c(Cl)cc3[nH]2)cn1 [Compound D-102]	4300	172
NS(=O)(=O)c1ccc(Oc2nc3nc(-c4ccc(N5CCOCC5)cc4)c(Cl)cc3[nH]2)cc1 [Compound B-133]	360	234
C#CC(C)Oc1nc2nc(-c3ccc(N4CCOCC4)cc3)c(Cl)cc2[nH]1 (centres unmarked) [Compound B-2]	3.6	399
CC(C)(C(=O)NCCO)c1ccc(Oc2nc3nc(-c4ccc(N5CCOCC5)cc4)c(Cl)cc3[nH]2)cn1 [Compound D-55]	2700	177
O=C1CCc2ccc(Oc3nc4nc(-c5ccc(N6CCOCC6)cc5)c(Cl)cc4[nH]3)cc2N1 [Compound B-141]	61	319
CC(C)(C(=O)O)c1ccc(Oc2nc3nc(-c4ccc(N5CCCC5)cc4)c(F)cc3[nH]2)cc1 [Compound C-39]	35	279
CC(=O)NCC(C)(C)c1ccc(Oc2nc3nc(-c4ccc(N5CCOCC5)cc4)c(Cl)cc3[nH]2)cc1 [Compound D-33]	52	220
COCC(=O)NC(C)(C)c1ccc(Oc2nc3nc(-c4ccc(N5CCOCC5)cc4)c(Cl)cc3[nH]2)cc1 [Compound D-50]	11	225
CC(=O)NC(C)(C)c1ccc(Oc2nc3nc(-c4ccc(C5(C(C)O)CC5)cc4)c(Cl)cc3[nH]2)cc1 [Compound D-103]	110	238
CC(C)(NC(=O)CO)c1ccc(Oc2nc3nc(-c4ccc(N5CCOCC5)cc4)c(Cl)cc3[nH]2)cc1 [Compound D-25]	31	225
CCc1ccc(Oc2nc3nc(-c4ccc(N5CCOCC5)cc4)c(Cl)cc3[nH]2)cn1 [Compound C-89]	470	242
CC(=O)NC(C)(C)c1ccc(Oc2nc3nc(-c4ccc(C5=CCN(C)CC5)cc4)c(Cl)cc3[nH]2)cc1 [Compound D-108]	3.3	301
CC(=O)NC(C)(C)c1ccc(Oc2nc3nc(-c4ccc(N5CCOCC5)cc4)c(Cl)cc3[nH]2)cc1F [Compound D-8]	39	244
CC(C)(C(N)=O)c1ccc(Oc2nc3nc(-c4ccc(N5CCOCC5)cc4)c(Cl)cc3[nH]2)cn1 [Compound D-7]	1600	285
CC(C)(NS(C)(=O)=O)c1ccc(Oc2nc3nc(-c4ccc(N5CCOCC5)cc4)c(Cl)cc3[nH]2)cc1 [Compound D-52]	2800	169
CC(=O)NC(C)(C)c1ccc(Oc2nc3nc(-c4ccc(C5CCOCC5)cc4)c(Cl)cc3[nH]2)cc1 [Compound D-107]	26	249
CC(C)(C(N)=O)c1ccc(Oc2nc3nc(-c4ccc(C5(COC(N)=O)CC5)cc4)c(Cl)cc3[nH]2)cc1 [Compound D-4]	70	207
CC(C)(C(N)=O)c1ccc(Oc2nc3nc(-c4ccc(N5CCOCC5)cc4)c(Cl)cc3[nH]2)cc1 [Compound C-98]	1700	165
CC(=O)NC(C)(C)c1ccc(Oc2nc3nc(-c4ccc(C5(CO)COC5)cc4)c(Cl)cc3[nH]2)cc1 [Compound D-110]	270	220

Now from value to compound:

EC150 (compound concentration showing 150% relative to the control) [nM]	Emax [%]	SMILES
11	282	CC(=O)NC(C)(C)c1ccc(Oc2nc3nc(-c4ccc(CCO)cc4)c(Cl)cc3[nH]2)cc1 [Compound D-17]
260	187	CC(=O)NC(C)(C)c1ccc(Oc2nc3nc(-c4ccc(C5(CO)CC5)cc4)c(Cl)cc3[nH]2)cn1 [Compound D-42]
68	253	O=C(O)c1cc(Oc2nc3nc(-c4ccc(N5CCOCC5)cc4)c(Cl)cc3[nH]2)ccc1Cl [Compound C-32]
13	339	Cc1ccc(Oc2nc3nc(-c4ccc(-c5ccccc5)cc4)c(Cl)cc3[nH]2)cc1C(=O)O [Compound B-22]
8.5	280	CC(=O)NC(C)(C)c1ccc(Oc2nc3nc(-c4ccc(OCCO)cc4)c(Cl)cc3[nH]2)cc1 [Compound D-16]
33	322	Cc1ccc(Oc2nc3nc(-c4ccc(N5CCOCC5)cc4)c(Cl)cc3[nH]2)cc1C(=O)NC#N [Compound C-9]
140	198	CC(C)(C(N)=O)c1ccc(Oc2nc3nc(-c4ccc(C5(CO)CC5)cc4)c(Cl)cc3[nH]2)cc1 [Compound D-24]
21	325	CC(C)(C(=O)O)c1cccc(Oc2nc3nc(-c4ccc(N5CCOCC5)cc4)c(Cl)cc3[nH]2)c1 [Compound D-18]
16	331	Cc1ccc(Oc2nc3nc(-c4ccc(C(C)(C)O)cc4)c(Cl)cc3[nH]2)cc1C(=O)O [Compound C-63]
70	301	Cc1ccc(-c2ccc(-c3nc4nc(Oc5ccc(C)c(C(=O)O)c5)[nH]c4cc3Cl)cc2)cc1 [Compound B-32]
250	249	CC(C)(C(=O)O)c1ccc(Oc2nc3nc(-c4ccc(N5CCOCC5)cc4)c(Cl)cc3[nH]2)cc1 [Compound B-107]
5100	246	Cc1ccc(Oc2nc3nc(-c4ccc(N5CCOCC5)cc4)ncc3[nH]2)cc1C(=O)O [Compound B-7]
100	321	Cc1ccc(Oc2nc3nc(-c4ccc(N5CCOCC5)nc4)c(Cl)cc3[nH]2)cc1C(=O)O [Compound B-63]
7.4	356	CC(C)(C(=O)O)c1ccc(Oc2nc3nc(-c4ccc(N5CCCC5)cc4)c(Cl)cc3[nH]2)cc1 [Compound C-11]
99	326	Cc1ccc(Oc2nc3nc(-c4ccc(N5CCOCC5)cc4)c(C(F)(F)F)cc3[nH]2)cc1C(=O)O [Compound C-96]
1.3	349	Cc1ccc(Oc2nc3nc(-c4ccc(C5(CO)CC5)cc4)c(Cl)cc3[nH]2)cc1C(=O)O [Compound C-37]
82	282	CC(=O)NC(C)(C)c1ccc(Oc2nc3nc(-c4cccc(N(C)C)c4)c(Cl)cc3[nH]2)cc1 [Compound D-26]
190	267	Clc1cc2[nH]c(Oc3ccccc3)nc2nc1-c1ccc(N2CCOCC2)cc1 [Compound B-104]
17	309	Cc1ccc(Oc2nc3nc(C#Cc4ccccc4)c(Cl)cc3[nH]2)cc1C(=O)O [Compound C-95]
